Each compound was assayed against ERα receptor in MCF-7 human ductal carcinoma breast cell line (Homo sapiens (Human), UniProt P03372) (assay: MCF-7 ER down regulation assay (immuno-fluorescence)). Conditions: MCF-7 cells, 18-22 hours incubation; read-out: ER down regulation IC50 value.
Format: cell-based
Method: MCF-7 ER Down Regulation Assay
The ability of compounds to down-regulate Estrogen Receptor (ER) numbers was assessed in a cell based immuno-fluorescence assay using the MCF-7 human ductal carcinoma breast cell line. MCF-7 cells were revived directly from a cryovial (approx 5×10^6 cells) in Assay Medium (phenol red free Dulbecco's Modified Eagle's medium (DMEM) (Sigma D5921) containing 2mM L-Glutamine and 5% (v/v) Charcoal/Dextran treated foetal calf serum. Cells were syringed once using a sterile 18 G×1.5 inch (1.2×40 mm) broad gauge needle and cell density was measured using a Coulter Counter (Beckman). Cells were further diluted in Assay Medium to a density of 3.75×10^4 cells per mL and 40 μL per well added to transparent bottomed, black, tissue culture treated 384 well plates (Costar, No. 3712) using a Thermo Scientific Matrix WellMate or Thermo Multidrop. Following cell seeding, plates were incubated overnight at 37° C., 5% CO2 (Liconic carousel incubator). Test data was generated using the LabCyte Echo™ model 555 compound reformatter which is part of an automated workcell (Integrated Echo 2 workcell). 10 mM compound stock solutions of the test compounds were used to generate a 384 well compound dosing plate (Labcyte P-05525-CV1). […] 40 μΛ of DMSO added to wells in row P on the source plate allow for DMSO normalisation across the dose range. To dose the control wells 40 μL of DMSO was added to row O1 and 40 μL of 100 μM fulvestrant in DMSO was added to row O3 on the compound source plate. […] Compounds were dispensed onto the cell plates with a compound source plate prepared as above producing a 12 pt duplicate 3 μM to 3 pM dose range with 3 fold dilutions and one final 10 fold dilution using the Integrated Echo 2 workcell. […] Cells were fixed at room temperature for 20 mins before being washed two times with 250 μL PBS/Proclin (PBS with a Biocide preservative) using a BioTek platewasher, 40 μL of PBS/Proclin was then added to all wells and the plates stored at 4° C. The fixing method described above was carried out on the Integrated Echo 2 workcell. Immunostaining was performed using an automated AutoElisa workcell. The PBS/Proclin was aspirated from all wells and the cells permeabilised with 40 μL PBS containing 0.5% Tween™ 20 (v/v) for 1 hour at room temperature. The plates were washed three times in 250 μL of PBS/0.05% (v/v) Tween 20 with Proclin (PBST with a Biocide preservative) and then 20 μL of ERα (SP1) Rabbit monoclonal antibody (Thermofisher) 1:1000 in PBS/Tween™/3% (w/v) Bovine Serum Albumin was added. The plates were incubated overnight at 4° C. (Liconic carousel incubator) and then washed three times in 250 μL of PBS/0.05% (v/v) Tween™ 20 with Proclin (PBST). The plates were then incubated with 20 μL/well of a goat anti-rabbit IgG AlexaFluor 594 or goat anti-rabbit AlexaFluor 488 antibody (Molecular Probes) with Hoechst at 1:5000 in PBS/Tween™/3% (w/v) Bovine Serum Albumin for lhour at room temperature. The plates were then washed three times in 250 μL of PBS/0.05% (v/v) Tween™ 20 with Proclin (PBST with a Biocide preservative). 20 μL of PBS was added to each well and the plates covered with a black plate seal and stored at 4° C. before being read. Plates were read using a Cellomics Arrayscan reading the 594 nm (24 hr time point) or 488 nm (5 hr timepoint) fluorescence to measure the ERα receptor level in each well. The mean total intensity was normalized for cell number giving the total intensity per cell.

Sequence of ERα receptor in MCF-7 human ductal carcinoma breast cell line (P03372 whole entry): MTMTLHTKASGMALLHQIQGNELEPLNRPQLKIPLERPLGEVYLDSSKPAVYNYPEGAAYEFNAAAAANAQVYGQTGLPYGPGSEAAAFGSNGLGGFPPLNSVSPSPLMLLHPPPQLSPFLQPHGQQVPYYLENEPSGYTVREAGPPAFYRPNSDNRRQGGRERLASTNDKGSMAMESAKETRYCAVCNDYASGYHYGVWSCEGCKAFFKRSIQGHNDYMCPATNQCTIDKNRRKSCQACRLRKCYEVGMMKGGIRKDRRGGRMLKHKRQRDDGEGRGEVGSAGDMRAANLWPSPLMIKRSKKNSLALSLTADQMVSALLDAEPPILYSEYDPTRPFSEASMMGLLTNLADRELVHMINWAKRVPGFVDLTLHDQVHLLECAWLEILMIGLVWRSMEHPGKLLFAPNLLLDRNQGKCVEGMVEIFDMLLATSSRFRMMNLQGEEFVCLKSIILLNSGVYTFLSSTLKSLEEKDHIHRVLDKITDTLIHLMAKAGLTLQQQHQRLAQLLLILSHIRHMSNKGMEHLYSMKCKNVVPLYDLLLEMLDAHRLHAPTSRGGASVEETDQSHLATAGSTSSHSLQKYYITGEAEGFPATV

Structure (SMILES)	DC50 [pM]
C[C@@H]1Cc2c(ccc3[nH]nc(F)c23)[C@@H](c2c(F)cc(OCCN3CC(CF)C3)cc2F)N1CC1(F)COC1 [Example 43, (6S,8R)-6-(2,6-difluoro-4-(2-(3-(fluoromethyl)azetidin-1-yl)ethoxy)phenyl)-1-fluoro-7-((3-fluorooxetan-3-yl)methyl)-8-methyl-6,7,8,9-tetrahydro-3H-pyrazolo[4,3-f]isoquinoline]	590
C[C@@H]1Cc2c(ccc3[nH]ncc23)[C@@H](c2ccc(OCCN3CC(CF)C3)cn2)N1CC(C)(F)F [Example 41, (6S,8R)-7-(2,2-difluoropropyl)-6-(5-(2-(3-(fluoromethyl)azetidin-1-yl)ethoxy)pyridin-2-yl)-8-methyl-6,7,8,9-tetrahydro-3H-pyrazolo[4,3-f]isoquinoline]	290
COc1cc(OCCN2CC(CF)C2)ncc1[C@@H]1c2ccc3[nH]ncc3c2C[C@@H](C)N1CC1(F)CC1 [Example 42, (6S,8R)-7-((1-fluorocyclopropyl)methyl)-6-(6-(2-(3-(fluoromethyl)azetidin-1-yl)ethoxy)-4-methoxypyridin-3-yl)-8-methyl-6,7,8,9-tetrahydro-3H-pyrazolo[4,3-f]isoquinoline]	590
COc1cc(OCCN2CC(CF)C2)ccc1[C@@H]1c2ccc3[nH]ncc3c2C[C@@H](C)N1CC(C)(F)F [Example 11, (6S,8R)-7-(2,2-difluoropropyl)-6-(4-(2-(3-(fluoromethyl)azetidin-1-yl)ethoxy)-2-methoxyphenyl)-8-methyl-6,7,8,9-tetrahydro-3H-pyrazolo[4,3-f]isoquinoline]	36
COc1cc(OCCN2CC(CF)C2)ccc1[C@@H]1c2ccc3[nH]ncc3c2C[C@@H](C)N1CC(C)(F)CF (single isomer, unassigned) [Example 20]	130
C[C@@H]1Cc2c(ccc3[nH]ncc23)[C@@H](c2c(F)cc(OCCN3CC(CF)C3)cc2F)N1CC(F)CF (single isomer, unassigned) [Example 34]	280
COc1cc(OCCN2CC(CF)C2)ccc1[C@@H]1c2ccc3[nH]ncc3c2C[C@@H](C)N1CC1(F)COC1 [Example 13, (6S,8R)-6-(4-(2-(3-(fluoromethyl)azetidin-1-yl)ethoxy)-2-methoxyphenyl)-7-((3-fluorooxetan-3-yl)methyl)-8-methyl-6,7,8,9-tetrahydro-3H-pyrazolo[4,3-f]isoquinoline]	230
COc1cc(OCCN2CC(CF)C2)ccc1[C@@H]1c2ccc3[nH]ncc3c2C[C@@H](C)N1CC(F)(F)F [Example 12, (6S,8R)-6-(4-(2-(3-(fluoromethyl)azetidin-1-yl)ethoxy)-2-methoxyphenyl)-8-methyl-7-(2,2,2-trifluoroethyl)-6,7,8,9-tetrahydro-3H-pyrazolo[4,3-f]isoquinoline]	51
COc1cc(OCCN2CC(C)C2)ccc1[C@@H]1c2ccc3[nH]ncc3c2C[C@@H](C)N1CC(C)(C)F [Example 23, (6S,8R)-7-(2-fluoro-2-methylpropyl)-6-(2-methoxy-4-(2-(3-methylazetidin-1-yl)ethoxy)phenyl)-8-methyl-6,7,8,9-tetrahydro-3H-pyrazolo[4,3-f]isoquinoline]	240
CC(C)CN1C(c2c(F)cc(OCCN3CC(CF)C3)cc2F)c2ccc3[nH]ncc3c2CC1(C)C (stereo not drawn) [Example 36, 6-(2,6-difluoro-4-(2-(3-(fluoromethyl)azetidin-1-yl)ethoxy)phenyl)-7-isobutyl-8,8-dimethyl-6,7,8,9-tetrahydro-3H-pyrazolo[4,3-f]isoquinoline]	250
COCC(C)(F)CN1[C@H](c2ccc(OCCN3CC(CF)C3)cc2OC)c2ccc3[nH]ncc3c2C[C@H]1C (single isomer, unassigned) [Example 17]	240
COc1cc(OCCN2CC(CF)C2)ccc1[C@@H]1c2ccc3[nH]ncc3c2C[C@@H](C)N1CC(C)(F)CF (single isomer, unassigned) [Example 21]	130
CC(C)(F)CN1C(c2c(F)cc(OCCN3CC(CF)C3)cc2F)c2ccc3[nH]ncc3c2CC1(C)C (stereo not drawn) [Example 37, 6-(2,6-difluoro-4-(2-(3-(fluoromethyl)azetidin-1-yl)ethoxy)phenyl)-7-(2-fluoro-2-methylpropyl)-8,8-dimethyl-6,7,8,9-tetrahydro-3H-pyrazolo[4,3-f]isoquinoline]	160
COc1cc(OCCN2CC(CF)C2)cc(F)c1[C@@H]1c2ccc3[nH]ncc3c2C[C@@H](C)N1CC(F)(F)CF [Example 27, (6S,8R)-6-(2-fluoro-4-(2-(3-(fluoromethyl)azetidin-1-yl)ethoxy)-6-methoxyphenyl)-8-methyl-7-(2,2,3-trifluoropropyl)-6,7,8,9-tetrahydro-3H-pyrazolo[4,3-f]isoquinoline]	59
COc1cc(OCCN2CC(CF)C2)ccc1[C@@H]1c2ccc3[nH]ncc3c2C[C@@H](C)N1CC(F)(F)CO [Example 14, 2,2-difluoro-3-((6S,8R)-6-(4-(2-(3-(fluoromethyl)azetidin-1-yl)ethoxy)-2-methoxyphenyl)-8-methyl-3,6,8,9-tetrahydro-7H-pyrazolo[4,3-f]isoquinolin-7-yl)propan-1-ol]	150
COCC(C)(F)CN1[C@H](c2ccc(OCCN3CC(CF)C3)cc2OC)c2ccc3[nH]ncc3c2C[C@H]1C (single isomer, unassigned) [Example 16]	440
C[C@@H]1Cc2c(ccc3[nH]ncc23)[C@@H](c2ccc(OCCN3CC(CF)C3)cc2C#N)N1CC1(F)CC1 [Example 39, 2-((6S,8R)-7-((1-fluorocyclopropyl)methyl)-8-methyl-6,7,8,9-tetrahydro-3H-pyrazolo[4,3-f]isoquinolin-6-yl)-5-(2-(3-(fluoromethyl)azetidin-1-yl)ethoxy)benzonitrile]	170
CC1(C)Cc2c(ccc3[nH]ncc23)C(c2ccc(OCCN3CC(CF)C3)cn2)N1CC(F)F (stereo not drawn) [Example 45, 7-(2,2-difluoroethyl)-6-(5-(2-(3-(fluoromethyl)azetidin-1-yl)ethoxy)pyridin-2-yl)-8,8-dimethyl-6,7,8,9-tetrahydro-3H-pyrazolo[4,3-f]isoquinoline]	3100
COc1cc(OCCN2CC(CF)C2)ccc1[C@@H]1c2ccc3[nH]ncc3c2C[C@@H](C)N1CC(F)(F)CF [Example 22, (6S,8R)-6-(4-(2-(3-(fluoromethyl)azetidin-1-yl)ethoxy)-2-methoxyphenyl)-8-methyl-7-(2,2,3-trifluoropropyl)-6,7,8,9-tetrahydro-3H-pyrazolo[4,3-f]isoquinoline]	150
COCC(F)(F)CN1[C@H](c2ccc(OCCN3CC(CF)C3)cc2OC)c2ccc3[nH]ncc3c2C[C@H]1C [Example 15, (6S,8R)-7-(2,2-difluoro-3-methoxypropyl)-6-(4-(2-(3-(fluoromethyl)azetidin-1-yl)ethoxy)-2-methoxyphenyl)-8-methyl-6,7,8,9-tetrahydro-3H-pyrazolo[4,3-f]isoquinoline]	91
COc1cc(OCCN2CC(CF)C2)cc(F)c1[C@@H]1c2ccc3[nH]ncc3c2C[C@@H](C)N1CC(F)(F)CO [Example 26, 2,2-difluoro-3-((6S,8R)-6-(2-fluoro-4-(2-(3-(fluoromethyl)azetidin-1-yl)ethoxy)-6-methoxyphenyl)-8-methyl-8,9-dihydro-3H-pyrazolo[4,3-f]isoquinolin-7(6H)-yl)propan-1-ol]	130

Same assay, conditions: MCF-7 cells; >90% unless otherwise stated

Structure (SMILES)	% downregulation (in brackets) in ER down regulation assay [%]
COc1cc(OCCN2CC(C)C2)ccc1[C@@H]1c2ccc3[nH]ncc3c2C[C@@H](C)N1CC(C)(C)F [Example 23, (6S,8R)-7-(2-fluoro-2-methylpropyl)-6-(2-methoxy-4-(2-(3-methylazetidin-1-yl)ethoxy)phenyl)-8-methyl-6,7,8,9-tetrahydro-3H-pyrazolo[4,3-f]isoquinoline]	67
COCC(C)(F)CN1[C@H](c2ccc(OCCN3CC(CF)C3)cc2OC)c2ccc3[nH]ncc3c2C[C@H]1C (single isomer, unassigned) [Example 16]	56
COc1cc(OCCN2CC(OC)C2)ccc1[C@@H]1c2ccc3[nH]ncc3c2C[C@@H](C)N1CC(C)(C)F [Example 24, (6S,8R)-7-(2-fluoro-2-methylpropyl)-6-(2-methoxy-4-(2-(3-methoxyazetidin-1-yl)ethoxy)phenyl)-8-methyl-6,7,8,9-tetrahydro-3H-pyrazolo[4,3-f]isoquinoline]	<50
